The target in series [1] is T1, rhVAP-1 (Homo sapiens (Human), UniProt Q16853). The series is described as follows: Inhibition activity of the compounds on the rhVAP-1 enzyme (Amplex Red/HRP fluorescence, benzylamine substrate). It counts as biochemical. To be noted: 30 minutes pre-incubation at 37° C. Here is the method: 1. Inhibition Activity of the Compounds on the rhVAP-1 Enzyme
Multifunctional microplate reader (MD, FlexStation 3), black bottom-impermeable 96-well plate (Corning), rhVAP-1 (PeproTech)
An appropriate amount of the test compound was dissolved in DMSO to 10 mM and stored. Before the experiment, an appropriate amount of 10 mM test compound mother liquor was diluted to 10 μM solution with DMSO. Then 3-fold gradient dilution with DMSO was performed, and 10 concentration gradients were formed.
An appropriate amount of protein diluent was added to the rhVAP-1 powder to obtain 1 mg/mL of the mother liquor for storage. Before the experiment, the dilution with PBS provided a 4×concentration of the enzyme solution.
An appropriate amount of benzylamine was added to PBS and dissolved to obtain 200 mM of the benzylamine solution. 2 mM Amplex Red mother liquor and 500 U/mL HRP mother liquor were added. The dilution with PBS provided 2×concentration substrate mixed solution.
(§1) First, 10 μL of compound solutions of different concentrations, 25 μL of 4×rhVAP-1 enzyme solution and 15 μL of PBS were added to a 96-well plate, evenly mixed by oscillation, and incubated at 37° C. for 30 minutes. Then 50 μL of 2×substrate mixed solution was added to each well, and immediately the detection was performed with the microplate reader in a condition of an exciting light at 565 nm, an emitting light at 590 nm, the fluorescence intensity for detecting each well of 5 minutes/run, and a total detection time of 25 minutes. The inhibition rate was calculated according to the following formula: V(RFU/min)=(Ft(RFU)−F0(RFU))/(Time(min)) Inhibition rate (%)=100%−Vcmpd(RFU/min)/V max(RFU/min)×100%
(§2) V: the fluorescence change rate; Ft: fluorescence reading at the time point t; F0: fluorescence reading at the time point 0; Time: time period t; Vcmpd: the fluorescence change rate of the test compound; Vmax: the Max well fluorescence change rate.
(§3) The log values of the concentrations were taken as the X-axis and the percent inhibition rates were taken as the Y-axis, and the dose-effect curve was fitted using the log(inhibitor) vs. response-Variable slope of the analytical software GraphPad Prism 5 to obtain the IC50 value of each compound for enzyme activity.

Series [2] in a line: In vitro stability test in the dog plasma. Format: in vitro ADME. To be noted: Beagle dog plasma, 37° C., 2 hours, 0.2 μM. The protocol:
Biological Example 2: In Vitro Stability Test of the Compound of the Present Invention in the Dog Plasma
Test compound: about 2 mg of test compound was prepared with DMSO into a 5 mM stock solution, then diluted with DMSO to 1 mM solution, and finally diluted with water to 50 μM test compound working solution for use.
Termination solution: about 2 mg of tolbutamide compound was firstly prepared with DMSO into a 1 mg/mL stock solution, finally diluted with acetonitrile to 100 ng/mL termination solution, and stored at 4° C. for later use.
(1) Frozen Beagle dog plasma was pre-incubated and thawed in a 37° C. water bath constant temperature oscillator for use.
(2) 10 μL of test compound (10 μM) was added to 490M (Beagle dog plasma, final concentration of the test substance was 0.2 μM, two duplicate samples.
(3) The sample was evenly mixed in vortex and incubated in a 37° C. water bath constant temperature oscillator.
(4) At the corresponding time points (T=0 h, 0.5 h, 1 h, 2 h; sample at 0 h was not incubated), 400 μL of the termination solution was added to 40 μL of the reaction solution obtained by reacting the test compound of step (2) and the components in the blood plasma, and the resulting mixture was evenly mixed and frozen at −80° C. for storage. […]

Another series concerns the target MAO-B (Homo sapiens (Human), UniProt P27338). Nature of the series: Selectivity of the compounds for MAO-B enzyme (MAO-Glo). It counts as biochemical. Particulars: 60 minutes pre-incubation at 37° C. Here is the method: (§4) 2. Selectivity of the Compounds for MAO-A/B Enzymes
(§5) Microplate reader (Perkin Elmer, Envision), 384 well plates (Perkin Elmer), centrifuge (Eppendorf), MAO-Glo™ (Promega), MAO-A (Active Motif) and MAO-B (Active Motif).
(§6) An appropriate amount of the test compound was dissolved in DMSO to 10 mM and stored. Before the experiment, an appropriate amount of 10 mM test compound mother liquor was diluted to 100 μM solution with DMSO. Then 4-fold gradient dilution with DMSO was performed, and 6 concentration gradients were formed.
(§7) The MAO-A/B mother liquor was diluted to 2×concentration enzyme solution with the assay buffer solution for the MAO-A/B.
(§8) The mother liquor of the MAO-A/B substrate mixed solution was diluted to 2×concentration substrate mixed solution with the assay buffer solution for the MAO-A/B.
(§9) 200 nL of compound solutions of different concentrations or solvent
(§10) and 10 μL of 2×MAO-A/B enzyme solution were added to a 384-well plate, evenly mixed by oscillation, and incubated at 37° C. for 60 minutes. Then 10 μL of 2×substrate mixed solution was added to each well, and immediately the detection was performed with the microplate reader in a condition of an exciting light at 535 nm, an emitting light at 587 nm, the fluorescence intensity for detecting each well of 5 minutes/run, and a total detection time of 25 minutes.
(§11) The inhibition rate was calculated according to the following formula: V(RFU/min)=(Ft(RFU)−F0(RFU))/(Time(min)) Inhibition rate (%)=100%−Vcmpd(RFU/min)/V max(RFU/min)×100%
as §2, §3

In a further series the target is MAO-A (Homo sapiens (Human), UniProt P21397). Nature of the series: Selectivity of the compounds for MAO-A enzyme (MAO-Glo). Particulars: 60 minutes pre-incubation at 37° C. It counts as biochemical. Here is the method: as §4, §5, §6, §7, §8, §9, §10, §11, §2, §3
Sequence of MAO-A (P21397 whole entry): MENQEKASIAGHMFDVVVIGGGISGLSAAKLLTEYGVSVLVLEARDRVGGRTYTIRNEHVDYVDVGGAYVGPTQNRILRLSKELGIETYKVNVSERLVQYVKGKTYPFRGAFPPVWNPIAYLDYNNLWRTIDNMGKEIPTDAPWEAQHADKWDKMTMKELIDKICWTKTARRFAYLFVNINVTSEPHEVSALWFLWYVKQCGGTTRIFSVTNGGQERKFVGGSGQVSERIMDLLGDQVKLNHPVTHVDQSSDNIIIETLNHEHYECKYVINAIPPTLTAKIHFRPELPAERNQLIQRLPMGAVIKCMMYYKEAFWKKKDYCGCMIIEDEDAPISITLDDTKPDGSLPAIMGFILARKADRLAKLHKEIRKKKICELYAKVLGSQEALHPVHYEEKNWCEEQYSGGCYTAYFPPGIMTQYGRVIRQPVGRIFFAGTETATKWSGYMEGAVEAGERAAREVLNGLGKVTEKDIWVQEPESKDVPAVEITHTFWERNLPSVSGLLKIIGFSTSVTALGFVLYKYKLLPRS
Series [3] is described as follows: Stability test in human liver microsome. It counts as in vitro ADME. To be noted: human liver microsome 0.5 mg protein/mL, compound 1 μM, β-NADPH. Here is the method:
Biological Example 3: Stability Test of the Compounds of the Present Invention in Human Liver Microsome
The composition of the incubation system:
(1) The liver microsome (20 mg protein/mL) was removed from the −80° C. refrigerator, pre-incubated in a 37° C. water bath constant temperature oscillator for 3 minutes, and thawed for use.
(2) A mixed solution of the incubation system (excluding compound and β-NADPH) according to the above “composition of the incubation system” for the test was prepared, and pre-incubated in a 37° C. water bath constant temperature oscillator for 2 minutes.
(3) Control group (excluding β-NADPH): 30 μL of water and 30 μL of compound working solution (concentration: 10 μM) were added to 240 μL of the mixed solution of the incubation system of step (2), and vortexed for 30 seconds to mix well. The total reaction volume was 300 μL. A duplicate sample was prepared. The sample was incubated in a 37° water bath constant temperature oscillator. The timing began and the sampling time points were set at 0 minute and 60 minutes.
(4) Sample group: 70 μL β-NADPH solution (10 mM) and 70 μL compound working solution (concentration: 10 μM) were added to 560 μL of the mixed solution in step (2). The total reaction volume was 700 μL. The resulting mixture was vortexed for 30 seconds to mix well. A duplicate sample was prepared. The sample was incubated in a 37° C. water bath constant temperature oscillator. The timing began and the sampling time points were set at 0 minute, 5 minutes, 10 minutes, 20 minutes, 30 minutes, and 60 minutes after timing.
(5) After vortexing for 3 minutes, the sample was centrifuged at 12000 rpm for 5 minutes.
(6) 150 μL of water was added to 50 μL of the supernatant. The resulting mixture was evenly mixed in vortex, and the sample LC/MS/MS analysis was performed.

For series [4], the target named is T1, rhVAP-1. The series is described as follows: Time-dependent inhibition assay for the rhVAP-1 enzyme. It counts as biochemical. The protocol:
Biological example 4: Time-dependent inhibition assay for the rhVAP-1 enzyme
After incubation of the test substances at corresponding time intervals according to Table 4, the activity was measured at each time point in the same manner as in the rhVAP-1 enzymatic test method of biological example 1.
as §1, with “Specifically,” for “First,”, “concentrations or solvent,” for “concentrations,”, “0 minutes, 3 minutes, 6 minutes, 9 minutes and 12” for “30”, “minutes.” for “minutes. The inhibition rate was calculated according to the following formula: V(RFU/min)=(Ft(RFU)−F0(RFU))/(Time(min)) Inhibition rate (%)=100%−Vcmpd(RFU/min)/V max(RFU/min)×100%”

The source of these data is patent US11649233B2, “Halo-allylamine SSAO/VAP-1 inhibitor and use thereof” (Nanjing Transthera Biosciences Co., Ltd., priority 2017, dated 2023).

Structures are written as SMILES. Structures can show the parent of a compound that is named as a salt.

T1 sequence (Q16853 whole entry): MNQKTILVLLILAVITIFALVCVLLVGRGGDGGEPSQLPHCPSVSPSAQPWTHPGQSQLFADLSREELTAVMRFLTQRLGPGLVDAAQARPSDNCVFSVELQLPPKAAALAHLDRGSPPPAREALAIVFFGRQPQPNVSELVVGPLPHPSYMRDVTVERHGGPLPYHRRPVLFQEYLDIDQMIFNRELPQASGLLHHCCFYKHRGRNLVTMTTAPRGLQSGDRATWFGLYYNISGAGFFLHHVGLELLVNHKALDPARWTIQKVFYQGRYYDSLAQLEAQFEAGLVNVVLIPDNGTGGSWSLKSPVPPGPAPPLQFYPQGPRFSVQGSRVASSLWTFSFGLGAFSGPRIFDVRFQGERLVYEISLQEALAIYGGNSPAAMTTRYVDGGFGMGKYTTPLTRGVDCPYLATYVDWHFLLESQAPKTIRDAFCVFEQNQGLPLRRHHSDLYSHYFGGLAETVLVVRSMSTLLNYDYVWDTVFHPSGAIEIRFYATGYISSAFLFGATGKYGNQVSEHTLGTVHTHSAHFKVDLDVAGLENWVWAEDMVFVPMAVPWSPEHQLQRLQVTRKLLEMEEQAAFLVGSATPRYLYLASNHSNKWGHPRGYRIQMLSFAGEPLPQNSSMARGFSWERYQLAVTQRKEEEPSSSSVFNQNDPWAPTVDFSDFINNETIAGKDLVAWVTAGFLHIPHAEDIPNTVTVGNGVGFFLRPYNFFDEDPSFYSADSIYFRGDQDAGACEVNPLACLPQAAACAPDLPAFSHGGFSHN
Sequence of MAO-B (P27338 whole entry): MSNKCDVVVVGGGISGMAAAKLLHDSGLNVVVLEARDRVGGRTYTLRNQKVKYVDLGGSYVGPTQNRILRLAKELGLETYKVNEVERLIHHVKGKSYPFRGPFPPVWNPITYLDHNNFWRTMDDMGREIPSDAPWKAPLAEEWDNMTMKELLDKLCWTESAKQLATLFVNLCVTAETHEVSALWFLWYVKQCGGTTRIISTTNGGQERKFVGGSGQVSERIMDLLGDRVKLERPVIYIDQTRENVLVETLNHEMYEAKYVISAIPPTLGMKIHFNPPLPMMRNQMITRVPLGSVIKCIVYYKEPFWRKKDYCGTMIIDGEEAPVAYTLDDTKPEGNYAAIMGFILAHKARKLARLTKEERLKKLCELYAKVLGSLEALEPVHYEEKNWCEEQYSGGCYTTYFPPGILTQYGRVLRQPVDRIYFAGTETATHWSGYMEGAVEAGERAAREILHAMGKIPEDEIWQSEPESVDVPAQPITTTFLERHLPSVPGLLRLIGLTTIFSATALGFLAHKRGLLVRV

For orientation: IC50 means the concentration at which inhibition is half-maximal. Regarding `NC/C(=C\F)COc1ccc2c(c1)CCN(C1CC1)C2=O` [Hydrochloride of Compound 5, (E)-6-((2-(aminomethyl)-3-fluoroallyl)oxy)-2-cyclopropyl-3,4-dihydroisoquinolin-1(2H)-one], the IC50 on rhVAP-1 [1] came to 0.018 µM; on MAO-B, 6.3 µM; on MAO-A it was 1.3 µM. Also, in series [2], the “Retention Rate” value is 98.6%. For the same compound, the ClH in series [3] worked out at 4.63 mL/min/kg.

Consider `NC/C(=C/F)COc1ccc2c(n1)CCN(C1CC1)C2=O` [Trifluoroacetate of Compound 23, (Z)-2-((2-(aminomethyl)-3-fluoroallyl)oxy)-6-cyclopropyl-7,8-dihydro-1,6-naphthyridin-5(6H)-one], for which the 50% inhibitory concentration (IC50) stood at 0.014 µM against rhVAP-1 [1]; 0.206 µM at rhVAP-1 [4] (pre-incubation 0 minute); 0.0186 µM against rhVAP-1 [4] (pre-incubation 3 minutes); 0.0152 µM on rhVAP-1 [4] (pre-incubation 6 minutes); 0.014 µM against rhVAP-1 [4] (pre-incubation 9 minutes); 0.0125 µM against rhVAP-1 [4] (pre-incubation 12 minutes). For the same compound, the results for the IC50 on MAO-B and on MAO-A were 19 µM and 10 µM, respectively.
